Assay results published in PMC13195121, “A plasmid toolbox for the easy autodisplay of recombinant proteins and its optimization” (Communications Biology, 2026).
Counter-ions that a name gives are not always drawn.

Experiments:
[1] = target: T1, β-Gluc (β-glucosidase BglA LYTH) (Caldicellulosiruptor saccharolyticus, UniProt P10482); test: whole-cell absorbance assay at […] nm, surface-displaying E. coli; type: cell-based; details: 5 mM pNPG; 0.1 M Na-citrate pH 6; 55 °C
T1 construct: His6 tag and fXa site

laccase CotA = target: T2, laccase CotA (Heyndrickxia coagulans, UniProt A0AAN0WB15); test: whole-cell absorbance assay at […] nm, surface-displaying P. putida; type: cell-based; details: 0.1 M Na-acetate pH 5.6; 30 °C; cells grown with CuCl2
T2 construct: gene SB48_HM08orf01352; N-terminal His6 tag and fXa site; codon-optimized gene
T2 sequence (A0AAN0WB15 1-522): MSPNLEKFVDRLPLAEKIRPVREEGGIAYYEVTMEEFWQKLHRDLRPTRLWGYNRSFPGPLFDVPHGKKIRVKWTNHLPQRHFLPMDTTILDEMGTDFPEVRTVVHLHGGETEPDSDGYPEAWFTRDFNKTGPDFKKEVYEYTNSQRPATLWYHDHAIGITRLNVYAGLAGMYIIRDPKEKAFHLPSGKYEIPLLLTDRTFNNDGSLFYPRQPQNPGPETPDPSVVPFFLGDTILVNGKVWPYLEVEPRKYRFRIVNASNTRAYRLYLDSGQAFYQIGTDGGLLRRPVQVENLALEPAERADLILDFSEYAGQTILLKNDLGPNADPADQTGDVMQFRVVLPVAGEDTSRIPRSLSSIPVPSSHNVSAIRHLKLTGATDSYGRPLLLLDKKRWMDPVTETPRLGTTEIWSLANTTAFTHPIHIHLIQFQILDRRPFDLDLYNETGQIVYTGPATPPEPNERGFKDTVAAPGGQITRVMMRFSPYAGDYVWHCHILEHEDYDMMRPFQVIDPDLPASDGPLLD

T1 sequence (P10482 whole entry): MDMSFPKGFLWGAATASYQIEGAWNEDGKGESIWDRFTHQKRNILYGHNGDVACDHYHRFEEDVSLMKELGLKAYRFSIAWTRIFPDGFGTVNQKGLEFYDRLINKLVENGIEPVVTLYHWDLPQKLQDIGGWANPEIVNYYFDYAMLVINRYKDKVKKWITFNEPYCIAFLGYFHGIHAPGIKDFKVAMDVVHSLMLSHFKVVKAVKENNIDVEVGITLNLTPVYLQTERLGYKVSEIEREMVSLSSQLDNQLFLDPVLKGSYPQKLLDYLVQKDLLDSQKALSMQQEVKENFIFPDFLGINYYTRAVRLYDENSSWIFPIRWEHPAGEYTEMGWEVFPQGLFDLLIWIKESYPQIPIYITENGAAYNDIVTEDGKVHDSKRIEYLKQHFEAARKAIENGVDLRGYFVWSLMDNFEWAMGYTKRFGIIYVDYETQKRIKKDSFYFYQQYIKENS

SMILES	whole-cell absorbance assay at 405 nm, surface-displaying E. coli [1]	whole-cell absorbance assay at 420 nm, surface-displaying P. putida (laccase CotA)
O=[N+]([O-])c1ccc(O[C@@H]2O[C@H](CO)[C@@H](O)[C@H](O)[C@H]2O)cc1 [4-nitrophenyl-β-D-glucopyranoside]	activity assay with 4-nitrophenyl-β-D-glucopyranoside (pNPG) as substrate	–
CCn1c(=NN=c2sc3cc(S(=O)(=O)O)ccc3n2CC)sc2cc(S(=O)(=O)O)ccc21 [ABTS, 2,2’-Azino-bis [3-ethylbenzothiazoline-6-sulfonic acid]-diammonium salt]	–	The substrate ABTS is converted by the laccase to ABTS^•+
